Experimental data: patent publication US8338465B2, “Cyclic carboxylic acid rhodanine derivatives for the treatment and prevention of tuberculosis” (priority 2006, dated 2012)
Like-named read-outs stand apart in the source and are kept apart here.

Biological target: T1, dihydrolipoamide acyltransferase (DlaT) (Mycobacterium tuberculosis, UniProt P9WIS7)
T1 sequence (P9WIS7 1-553): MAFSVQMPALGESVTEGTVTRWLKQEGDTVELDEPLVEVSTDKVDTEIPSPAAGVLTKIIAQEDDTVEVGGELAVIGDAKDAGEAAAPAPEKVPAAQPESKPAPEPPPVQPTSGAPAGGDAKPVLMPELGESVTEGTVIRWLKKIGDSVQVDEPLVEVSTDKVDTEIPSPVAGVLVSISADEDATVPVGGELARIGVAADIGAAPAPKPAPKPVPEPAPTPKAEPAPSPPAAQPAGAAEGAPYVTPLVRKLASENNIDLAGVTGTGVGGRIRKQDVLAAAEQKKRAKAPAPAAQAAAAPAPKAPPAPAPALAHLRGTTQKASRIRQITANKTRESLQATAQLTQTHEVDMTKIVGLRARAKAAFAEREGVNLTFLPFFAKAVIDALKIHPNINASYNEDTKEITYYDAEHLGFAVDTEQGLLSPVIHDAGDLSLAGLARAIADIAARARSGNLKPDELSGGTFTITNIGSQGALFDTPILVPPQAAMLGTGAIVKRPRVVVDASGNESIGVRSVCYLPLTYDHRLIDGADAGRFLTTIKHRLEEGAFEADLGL
Assay: DlaT inhibition (Dlat IC50); DTNB peroxidase assay with Lpd, DlaT and AhpD
Type: biochemical

[1] = Table 1, Compounds A1 to A294, read-out: Dlat IC50 category
[2] = Dlat IC50 category, Table 21, Prodrugs (Examples U1 to U10)
[3] = Dlat IC50 category, Table 17, Compounds Q1 to Q9

SMILES: CNS(=O)(=O)c1ccc(-c2ccc(C=C3SC(=S)N(C4CCCC(C(=O)O)C4)C3=O)o2)cc1 (centres unmarked) [Compound C83, 3-{5-[5-(4-Methylsulfamoyl-phenyl)-furan-2-ylmethylene]-4-oxo-2-thioxo-thiazolidin-3-yl}-cyclohexanecarboxylic acid]
- IC50 (Dlat IC50 category): 11 to 40 µM

SMILES: CCOc1ccc(-c2ccc(C=C3SC(=S)N(c4cccc(C(=O)O)c4)C3=O)o2)cc1 [Compound A217]
- IC50 [1]: 11 to 40 µM

SMILES: CC(C)c1ccc(-c2ccc(C=C3SC(=S)N(c4cccc(O)c4)C3=O)o2)cc1 [Compound A52]
- IC50 [1]: 11 to 40 µM

SMILES: CC(C)c1cccc(-c2ccc(C=C3SC(=S)N(CC(=O)O)C3=O)o2)c1 [Compound B72]
- IC50 (Dlat IC50 category): < 10 µM

SMILES: CC(C)Cc1ccc(-c2ccc(C=C3SC(=S)N(CC(=O)O)C3=O)o2)cc1 [Compound B77]
- IC50 (Dlat IC50 category): < 10 µM

SMILES: Cc1ccccc1-c1ccc(C=C2SC(=S)N(c3cc(C(=O)O)cc(C(F)(F)F)c3)C2=O)o1 [Compound A234]
- IC50 [1]: < 10 µM

SMILES: CSc1ccc(-c2ccc(C=C3SC(=S)N(C4CCCC(C(=O)OCC(CO)CO)C4)C3=O)o2)cc1 (centres unmarked) [Compound U5, 3-{5-[1-[5-(4-Methylsulfanyl-phenyl)-furan-2-yl]-methylidene]-4-oxo-2-thioxo-thiazolidin-3-yl}-cyclohexanecarboxylic acid 3-hydroxy-2-hydroxymethyl-propyl ester]
- IC50 [2]: 11 to 40 µM

SMILES: O=C(O)CCCCCN1C(=O)C(=Cc2ccc(-c3cccc(C(F)(F)F)c3)o2)SC1=S [Compound B22]
- IC50 (Dlat IC50 category): < 10 µM

SMILES: COc1ccc(C(=O)O)cc1N1C(=O)C(=Cc2ccc(-c3ccc(Cl)cc3)o2)SC1=S [Compound A87]
- IC50 [1]: < 10 µM

SMILES: COc1ccc(C(=O)O)cc1N1C(=O)C(=Cc2ccc(-c3cccc(C(F)(F)F)c3)o2)SC1=S [Compound A86]
- IC50 [1]: < 10 µM

SMILES: COc1ccc(C(=O)O)cc1N1C(=O)C(=Cc2ccc(-c3ccc(C(C)(C)c4ccccc4)cc3)o2)SC1=S [Compound A97]
- IC50 [1]: 11 to 40 µM

SMILES: Cc1ccccc1-c1ccc(C=C2SC(=S)N(CC(=O)O)C2=O)o1 [Compound B87]
- IC50 (Dlat IC50 category): 41 to 80 µM

SMILES: CC(C)C(C(=O)O)N1C(=O)C(=Cc2ccc(-c3ccc(F)cc3)o2)SC1=S (centres unmarked) [Compound B107]
- IC50 (Dlat IC50 category): 11 to 40 µM

SMILES: O=C(O)c1cccc(N2C(=O)C(=Cc3ccc(-c4cncnc4)o3)SC2=S)c1 [Compound Q1]
- IC50 [3]: 11 to 40 µM

SMILES: COc1ccc(-c2ccc(C=C3SC(=S)N(c4cccc(C(=O)O)c4)C3=O)o2)c(OC)c1 [Compound A167]
- IC50 [1]: < 10 µM

SMILES: O=C(O)c1ccccc1NN1C(=O)C(=Cc2ccc(-c3ccc(F)cc3)o2)SC1=S [Compound D45, 2-{5-[1-[5-(4-fluoro-phenyl)-furan-2-yl]-methylidene]-4-oxo-2-thioxo-thiazolidin-3-ylamino}-benzoic acid]
- IC50 (Dlat IC50 category): < 10 µM

SMILES: Cc1cccc(C)c1-c1ccc(C=C2SC(=S)N(C3CCCC(C(=O)O)C3)C2=O)o1 (centres unmarked) [Compound C23, 3-{5-[5-(2,6-Dimethyl-phenyl)-furan-2-ylmethylene]-4-oxo-2-thioxo-thiazolidin-3-yl}-cyclohexanecarboxylic acid]
- IC50 (Dlat IC50 category): 11 to 40 µM

SMILES: Cc1ccc(-c2ccc(C=C3SC(=S)N(C4CCC(C(=O)O)CC4)C3=O)o2)cc1 (centres unmarked) [Compound C45, 4-{4-oxo-2-thioxo-5-[1-(5-p-tolyl-furan-2-yl)-methylidene]-thiazolidin-3-yl}-cyclohexanecarboxylic acid]
- IC50 (Dlat IC50 category): < 10 µM

SMILES: CCCCOc1ccc(-c2ccc(C=C3SC(=S)N(c4cc(C(=O)O)ccc4F)C3=O)o2)cc1 [Compound A227]
- IC50 [1]: 11 to 40 µM

SMILES: O=C(O)COc1cccc(N2C(=O)C(=Cc3ccc(-c4ccc(Cl)cc4)o3)SC2=S)c1 [Compound A60]
- IC50 [1]: 11 to 40 µM

SMILES: Cc1c(C(=O)O)cccc1N1C(=O)C(=Cc2ccc(-c3ccc(C(C)(C)C)cc3)o2)SC1=S [Compound A81]
- IC50 [1]: < 10 µM

SMILES: O=C(O)c1ccc(N2C(=O)C(=Cc3cc(-c4cccc(C(F)(F)F)c4)co3)SC2=S)cc1 [Compound A29]
- IC50 [1]: 11 to 40 µM

SMILES: O=C(O)c1cccc(N2C(=O)C(=Cc3ccc(-c4ccccc4Oc4ccccc4)o3)SC2=S)c1 [Compound A193]
- IC50 [1]: < 10 µM

SMILES: Cc1ccccc1-c1ccc(C=C2SC(=S)N(c3cc(C(=O)O)ccc3C)C2=O)o1 [Compound A145]
- IC50 [1]: < 10 µM

SMILES: O=C(O)C1CCC(N2C(=O)C(=Cc3ccc(-c4ccc(Cl)cc4)o3)SC2=S)CC1 (centres unmarked) [Compound C18, 4-{5-[1-[5-(4-chloro-phenyl)-furan-2-yl]-methylidene]-4-oxo-2-thioxo-thiazolidin-3-yl}-cyclohexanecarboxylic acid]
- IC50 (Dlat IC50 category): < 10 µM

SMILES: O=C1C(=Cc2ccc(-c3ccc(Cl)cc3)o2)SC(=S)N1c1ccc(O)cc1 [Compound A24]
- IC50 [1]: < 10 µM

SMILES: COc1ccc(-c2ccc(C=C3SC(=S)N(c4cc(C(=O)O)ccc4F)C3=O)o2)cc1 [Compound A166]
- IC50 [1]: < 10 µM

SMILES: CC(C)Cc1ccc(-c2ccc(C=C3SC(=S)N(c4ccc(O)c(C(=O)O)c4)C3=O)o2)cc1 [Compound A65]
- IC50 [1]: < 10 µM

SMILES: CNS(=O)(=O)c1ccc(-c2ccc(C=C3SC(=S)N(C4CCCC(C(=O)OCCCO)C4)C3=O)o2)cc1 (centres unmarked) [Compound U2, 3-{5-[1-[5-(4-Methylsulfamoyl-phenyl)-furan-2-yl]-methylidene]-4-oxo-2-thioxo-thiazolidin-3-yl}-cyclohexanecarboxylic acid 3-hydroxy-propyl ester]
- IC50 [2]: 11 to 40 µM

SMILES: CC(C)C(C(=O)O)N1C(=O)C(=Cc2ccc(-c3ccc(Cl)cc3Cl)o2)SC1=S (centres unmarked) [Compound B108]
- IC50 (Dlat IC50 category): < 10 µM

SMILES: CC(C)C(C(=O)O)N1C(=O)C(=Cc2ccc(-c3ccc(Cl)cc3[N+](=O)[O-])o2)SC1=S (centres unmarked) [Compound B110]
- IC50 (Dlat IC50 category): 11 to 40 µM

SMILES: O=C(NC(CO)(CO)CO)c1cccc(N2C(=O)C(=Cc3ccc(-c4ccccc4Cl)o3)SC2=S)c1 [Compound T6, 3-{5-[1-[5-(2-Chloro-phenyl)-furan-2-yl]-methylidene]-4-oxo-2-thioxo-thiazolidin-3-yl}-N-(2-hydroxy-1,1-bis-hydroxymethyl-ethyl)-benzamide]
- IC50 (Dlat IC50 category, Table 20, Prodrugs (Compounds T1 to T8)): 11 to 40 µM

SMILES: O=C(O)c1ccc(N2C(=O)C(=Cc3ccc(-c4cncnc4)o3)SC2=S)cc1 [Compound Q2]
- IC50 [3]: 11 to 40 µM

SMILES: O=C(O)c1ccc(F)c(N2C(=O)C(=Cc3ccc(-c4ccccc4O)o3)SC2=S)c1 [Compound A163]
- IC50 [1]: < 10 µM

SMILES: COc1ccc(-c2ccc(C=C3SC(=S)N(CCCCCC(=O)O)C3=O)o2)cc1Cl [Compound B21]
- IC50 (Dlat IC50 category): 11 to 40 µM

SMILES: CN(C)Cc1ccc(-c2ccc(C=C3SC(=S)N(c4cccc(C(=O)O)c4)C3=O)o2)cc1 [Compound A122]
- IC50 [1]: 11 to 40 µM

SMILES: Cc1cccc(C)c1-c1ccc(C=C2SC(=S)N(c3cc(C(=O)O)ccc3F)C2=O)o1 [Compound A172]
- IC50 [1]: < 10 µM

SMILES: O=C(O)C(c1ccccc1)N1C(=O)C(=Cc2ncc(-c3cccc(C(F)(F)F)c3)s2)SC1=S (centres unmarked) [Compound B25]
- IC50 (Dlat IC50 category): < 10 µM

SMILES: O=C(O)c1ccc(F)c(N2C(=O)C(=Cc3ccc(-c4ccc(F)cc4)o3)SC2=S)c1 [Compound A212]
- IC50 [1]: < 10 µM

SMILES: COc1ccc(C(=O)O)cc1N1C(=O)C(=Cc2ccc(-c3cccc(C(C)C)c3)o2)SC1=S [Compound A93]
- IC50 [1]: < 10 µM

SMILES: CN(C)c1ccc(-c2ccc(C=C3SC(=S)N(c4cc(C(=O)O)ccc4F)C3=O)o2)cc1 [Compound A191]
- IC50 [1]: < 10 µM

SMILES: O=C(O)c1ccc(N2C(=O)C(=Cc3ccc(-c4ccc(Cl)c(Cl)c4)o3)SC2=S)cc1 [Compound A8]
- IC50 [1]: < 10 µM

SMILES: O=C(O)c1cc(N2C(=O)C(=Cc3ccc(-c4cccc(C(F)(F)F)c4)o3)SC2=S)ccc1O [Compound A32]
- IC50 [1]: < 10 µM

SMILES: O=C(O)C(Cc1ccc(O)c(O)c1)N1C(=O)C(=Cc2ccc(-c3cc(Cl)ccc3Cl)o2)SC1=S (centres unmarked) [Compound B64]
- IC50 (Dlat IC50 category): < 10 µM

SMILES: Cc1ccc(-c2ccc(C=C3SC(=S)N(c4cc(C(=O)O)ccc4F)C3=O)o2)c(F)c1 [Compound A151]
- IC50 [1]: < 10 µM

SMILES: O=C(O)c1ccccc1NN1C(=O)/C(=C\c2ccc(-c3ccc(N4CCOCC4)cc3)o2)SC1=S (single isomer, unassigned) [Compound D6, 2-{5-[1-[5-(4-morpholin-4-yl-phenyl)-furan-2-yl]-meth-(E)-ylidene]-4-oxo-2-thioxo-thiazolidin-3-ylamino}-benzoic acid]
- IC50 (Dlat IC50 category): 11 to 40 µM

SMILES: Cc1ccccc1-c1cccc(C=C2SC(=S)N(c3cccc(C(=O)O)c3)C2=O)c1 [Compound A173]
- IC50 [1]: 11 to 40 µM

SMILES: CSc1cccc(-c2ccc(C=C3SC(=S)N(c4cc(C(=O)O)ccc4F)C3=O)o2)c1 [Compound A237]
- IC50 [1]: < 10 µM

SMILES: CC(C)Oc1ccc(-c2ccc(C=C3SC(=S)N(c4cccc(C(=O)O)c4)C3=O)o2)cc1 [Compound A240]
- IC50 [1]: < 10 µM

SMILES: CS(=O)(=O)c1ccc(-c2ccc(C=C3SC(=S)N(C4CCCC(C(=O)OCCCO)C4)C3=O)o2)cc1 (centres unmarked) [Compound U9, 3-{5-[1-[5-(4-Methanesulfonyl-phenyl)-furan-2-yl]-methylidene]-4-oxo-2-thioxo-thiazolidin-3-yl}-cyclohexanecarboxylic acid 3-hydroxy-propyl ester]
- IC50 [2]: 41 to 80 µM

SMILES: O=C(O)C(Cc1ccccc1)N1C(=O)C(=Cc2ccc(-c3ccc(CSc4ccccc4)cc3)o2)SC1=S (centres unmarked) [Compound B76]
- IC50 (Dlat IC50 category): < 10 µM

SMILES: O=C(O)c1cc(N2C(=O)C(=Cc3ccc(-c4ccccc4OC(F)(F)F)o3)SC2=S)ccc1F [Compound A281]
- IC50 [1]: < 10 µM

SMILES: CC(C)c1ccc(-c2ccc(C=C3SC(=S)N(C(C(=O)O)c4ccccc4)C3=O)o2)cc1 (centres unmarked) [Compound B66]
- IC50 (Dlat IC50 category): < 10 µM
